Measured values as given in patent US7405207B2, “Nebulizer formulations of dehydroepiandrosterone and methods of treating asthma or chronic obstructive pulmonary disease using compositions thereof” (Epigenesis Pharmaceuticals, Inc., priority 2002, dated 2008).
Several values for one entry are separate records, joined by “and”; a condition that tells them apart may be missing. Equal values may be shown once.

What was measured:
Format in all cases: physicochemical
[1] = Short-term solution stability; conditions: 7.5 mg/mL in 0.12% NaCl, room temperature
Procedure: Stability Studies. […] Aliquots of this solution are filled into clear glass vials and stored at room temperature (24-26° C.) and at 40° C. The samples are checked daily for DHEA-S content, DHEA content, and appearance. For each time point, duplicate samples are withdrawn and diluted from each vial.

Solubility of DHEA-S = conditions: 20 mM Na+ (0.12% NaCl), Ksp of 1316 mM^2, 15° C.
Description: Inhalation of pure water can produce a cough stimulus.

[2] = Stability of anhydrous DHEA-S and DHEA-S dihydrate with and without lactose (HPLC, DHEA formed)
Description: These conditions were used to stress the formulation in order to predict its long-term stability results.
The primary degradant is dehydroepiandrosterone or DHEA. […] The materials on accelerated storage become more cohesive with time as evidenced by clumping during sample weighing for chemical analysis. […] This is a considerable disadvantage since lactose is the most commonly used inhalation excipient for dry powder formulations. Continuing with the virtually anhydrous form would mean limiting formulations to neat powder or undertaking more comprehensive safety studies to use a novel excipient.

C[C@]12CC[C@H](OS(=O)(=O)[O-])CC1=CC[C@@H]1[C@@H]2CC[C@]2(C)C(=O)CC[C@@H]12.[Na+] [DHEA-S, sodium dehydroepiandrostenone sulfate]
solution stability [1]: stable for at least one day | calculated DHEA-S concentration (solubility) (Solubility of DHEA-S): 27.5 mM and 10.7 mg/mL

CC12CCC3C(CC=C4CC(OS(=O)(=O)[O-])CCC43C)C1CCC2=O.[Na+] (stereo not shown) [DHEA-S Dihydrate, dehydroepiandrosterone sodium sulfate dihydrate]
water content ([2]; after accelerated storage, one week at 50° C.): 8.66% | water content ([2]; starting value): 8.8%
